According to ChEMBL document CHEMBL1201862, “PubChem BioAssay data set” (2004):
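Method: 48-hour compound exposure of cells in 96-well plates, five concentrations, linear interpolation of endpoints. GI50 is the concentration that inhibits growth by half.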 The source made the active and inactive calls. No stated cut-off is given here; in the data, active = GI50 up to about 1.1 µM and inactive = higher.

Assays:
Experiment in all cases: NCI tumour cell line growth inhibition, 48 h
LOX IMVI = tested on: LOX IMVI
MOLT-4 = tested on: MOLT-4
M14 = tested on: M14
K562 = tested on: K562
CCRF-CEM = tested on: CCRF-CEM
RPMI-8226 = tested on: RPMI-8226
NCI/ADR-RES = tested on: NCI/ADR-RES
BT-549 = tested on: BT-549
HCT-116 = tested on: HCT-116
IGROV-1 = tested on: IGROV-1
HT-29 = tested on: HT-29
KM12 = tested on: KM12
SK-MEL-28 = tested on: SK-MEL-28
OVCAR-5 = tested on: OVCAR-5
OVCAR-3 = tested on: OVCAR-3
NCI-H226 = tested on: NCI-H226
SK-OV-3 = tested on: SK-OV-3
CAKI-1 = tested on: CAKI-1
NCI-H23 = tested on: NCI-H23
U-251 = tested on: U-251
SN12C = tested on: SN12C
A498 = tested on: A498
MDA-N = tested on: MDA-N
ACHN = tested on: ACHN
MCF7 = tested on: MCF7
SK-MEL-2 = tested on: SK-MEL-2
UO-31 = tested on: UO-31
PC-3 = tested on: PC-3
OVCAR-8 = tested on: OVCAR-8
SNB-75 = tested on: SNB-75
HCC 2998 = tested on: HCC 2998
HOP-92 = tested on: HOP-92
EKVX = tested on: EKVX
MDA-MB-435 = tested on: MDA-MB-435
786-0 = tested on: 786-0
HOP-62 = tested on: HOP-62
SK-MEL-5 = tested on: SK-MEL-5
NCI-H460 = tested on: NCI-H460
UACC-62 = tested on: UACC-62
COLO 205 = tested on: COLO 205
SNB-19 = tested on: SNB-19
DU-145 = tested on: DU-145
SF-295 = tested on: SF-295
A549 = tested on: A549
SF-539 = tested on: SF-539
UACC-257 = tested on: UACC-257
T47D = tested on: T47D
SW-620 = tested on: SW-620
SR = tested on: SR
HCT-15 = tested on: HCT-15
TK-10 = tested on: TK-10
SF-268 = tested on: SF-268
OVCAR-4 = tested on: OVCAR-4
HL-60 = tested on: HL-60
RXF 393 = tested on: RXF 393
MDA-MB-231 = tested on: MDA-MB-231
NCI-H522 = tested on: NCI-H522
Hs-578T = tested on: Hs-578T

`N#C/C(C(=O)Nc1ccc(Cl)cc1)=C(/N)N1CCOCC1` was tested, and the GI50 (LOX IMVI) was > 100 µM (inactive), the GI50 (MOLT-4) was 64 µM (inactive) and the GI50 (M14) was 86.3 µM (inactive). The GI50 (K562) was 61.2 µM (inactive), the GI50 (CCRF-CEM) was > 100 µM (inactive) and the GI50 (RPMI-8226) was > 100 µM (inactive). The GI50 (NCI/ADR-RES) was > 100 µM (inactive), the GI50 (BT-549) was > 100 µM (inactive) and the GI50 (HCT-116) was > 100 µM (inactive). For the same compound, the GI50 (IGROV-1) was > 100 µM (inactive), the GI50 (HT-29) was > 100 µM (inactive) and the GI50 (KM12) was > 100 µM (inactive). The GI50 (SK-MEL-28) was 76 µM (inactive), the GI50 (OVCAR-5) was > 100 µM (inactive) and the GI50 (OVCAR-3) was 96.8 µM (inactive). The GI50 (NCI-H226) was > 100 µM (inactive), the GI50 (SK-OV-3) was > 100 µM (inactive) and the GI50 (CAKI-1) was > 100 µM (inactive). The GI50 (NCI-H23) was > 100 µM (inactive), the GI50 (U-251) was > 100 µM (inactive) and the GI50 (SN12C) was > 100 µM (inactive). The GI50 (A498) was > 100 µM (inactive), the GI50 (MDA-N) was 61.8 µM (inactive) and the GI50 (ACHN) was > 100 µM (inactive). The GI50 (MCF7) was > 100 µM (inactive), the GI50 (SK-MEL-2) was > 100 µM (inactive) and the GI50 (UO-31) was 91 µM (inactive). For the same compound, the GI50 (PC-3) was > 100 µM (inactive), the GI50 (OVCAR-8) was > 100 µM (inactive) and the GI50 (SNB-75) was 65.5 µM (inactive). The GI50 (HCC 2998) was > 100 µM (inactive), the GI50 (HOP-92) was > 100 µM (inactive) and the GI50 (EKVX) was > 100 µM (inactive). The GI50 (MDA-MB-435) was 56.9 µM (inactive), the GI50 (786-0) was > 100 µM (inactive) and the GI50 (HOP-62) was 73.3 µM (inactive). The GI50 (SK-MEL-5) was 74.5 µM (inactive), the GI50 (NCI-H460) was > 100 µM (inactive) and the GI50 (UACC-62) was 77.8 µM (inactive). For the same compound, the GI50 (COLO 205) was > 100 µM (inactive), the GI50 (SNB-19) was > 100 µM (inactive) and the GI50 (DU-145) was 94 µM (inactive). For the same compound, the GI50 (SF-295) was > 100 µM (inactive), the GI50 (A549) was > 100 µM (inactive) and the GI50 (SF-539) was > 100 µM (inactive). The GI50 (UACC-257) was 47.4 µM (inactive), the GI50 (T47D) was > 100 µM (inactive) and the GI50 (SW-620) was > 100 µM (inactive). For the same compound, the GI50 (SR) was > 100 µM (inactive) and the GI50 (HCT-15) was greater than 100 µM.
With `O=C1CSC(c2c[nH]c3ccccc23)N1c1ccccc1[N+](=O)[O-]` (centres undefined) the GI50 (LOX IMVI) was > 100 µM (inactive), the GI50 (MOLT-4) was > 100 µM (inactive) and the GI50 (M14) was > 100 µM (inactive). The GI50 (K562) was > 100 µM (inactive), the GI50 (CCRF-CEM) was > 100 µM (inactive) and the GI50 (RPMI-8226) was > 100 µM (inactive). For the same compound, the GI50 (BT-549) was > 100 µM (inactive), the GI50 (HCT-116) was > 100 µM (inactive) and the GI50 (IGROV-1) was > 100 µM (inactive). For the same compound, the GI50 (TK-10) was > 100 µM (inactive), the GI50 (HT-29) was > 100 µM (inactive) and the GI50 (KM12) was > 100 µM (inactive). The GI50 (SK-MEL-28) was > 100 µM (inactive), the GI50 (OVCAR-5) was > 100 µM (inactive) and the GI50 (OVCAR-3) was > 100 µM (inactive). The GI50 (SF-268) was > 100 µM (inactive), the GI50 (SK-OV-3) was > 100 µM (inactive) and the GI50 (OVCAR-4) was > 100 µM (inactive). For the same compound, the GI50 (NCI-H23) was > 100 µM (inactive), the GI50 (HL-60) was > 100 µM (inactive) and the GI50 (U-251) was > 100 µM (inactive). For the same compound, the GI50 (RXF 393) was > 10 µM (inactive), the GI50 (SN12C) was > 100 µM (inactive) and the GI50 (MDA-N) was > 100 µM (inactive). For the same compound, the GI50 (MCF7) was > 100 µM (inactive), the GI50 (UO-31) was > 100 µM (inactive) and the GI50 (PC-3) was > 100 µM (inactive). The GI50 (OVCAR-8) was > 100 µM (inactive), the GI50 (HCC 2998) was > 100 µM (inactive) and the GI50 (HOP-92) was > 100 µM (inactive). For the same compound, the GI50 (MDA-MB-231) was > 100 µM (inactive), the GI50 (EKVX) was > 100 µM (inactive) and the GI50 (MDA-MB-435) was > 100 µM (inactive). The GI50 (NCI-H522) was > 100 µM (inactive), the GI50 (786-0) was > 100 µM (inactive) and the GI50 (HOP-62) was > 100 µM (inactive). For the same compound, the GI50 (SK-MEL-5) was > 100 µM (inactive), the GI50 (NCI-H460) was > 100 µM (inactive) and the GI50 (UACC-62) was > 100 µM (inactive). The GI50 (COLO 205) was > 100 µM (inactive), the GI50 (SNB-19) was > 100 µM (inactive) and the GI50 (DU-145) was > 100 µM (inactive). The GI50 (SF-295) was > 100 µM (inactive), the GI50 (A549) was > 100 µM (inactive) and the GI50 (SF-539) was > 100 µM (inactive). The GI50 (UACC-257) was > 100 µM (inactive), the GI50 (T47D) was > 100 µM (inactive) and the GI50 (SW-620) was > 100 µM (inactive). The GI50 (SR) was > 100 µM (inactive) and the GI50 (HCT-15) was greater than 100 µM.
`O=[N+]([O-])/C=C1\COCc2cc3c(cc21)OCO3` was tested, and the GI50 (LOX IMVI) was 27.2 µM (inactive), the GI50 (MOLT-4) was 24.5 µM (inactive) and the GI50 (M14) was 13.4 µM (inactive). For the same compound, the GI50 (K562) was 27.2 µM (inactive), the GI50 (CCRF-CEM) was 10.6 µM (inactive) and the GI50 (RPMI-8226) was 21.7 µM (inactive). For the same compound, the GI50 (NCI/ADR-RES) was 18 µM (inactive), the GI50 (HCT-116) was 21.2 µM (inactive) and the GI50 (IGROV-1) was 35.6 µM (inactive). For the same compound, the GI50 (TK-10) was 22.8 µM (inactive), the GI50 (HT-29) was 25.1 µM (inactive) and the GI50 (KM12) was 15.1 µM (inactive). For the same compound, the GI50 (SK-MEL-28) was 17.5 µM (inactive), the GI50 (OVCAR-5) was 19.9 µM (inactive) and the GI50 (OVCAR-3) was 16.8 µM (inactive). For the same compound, the GI50 (NCI-H226) was 34 µM (inactive), the GI50 (SF-268) was 27.2 µM (inactive) and the GI50 (SK-OV-3) was 42.7 µM (inactive). For the same compound, the GI50 (CAKI-1) was 13 µM (inactive), the GI50 (NCI-H23) was 12.1 µM (inactive) and the GI50 (HL-60) was 25.2 µM (inactive). The GI50 (U-251) was 18.6 µM (inactive), the GI50 (RXF 393) was 17.9 µM (inactive) and the GI50 (Hs-578T) was 26.9 µM (inactive). The GI50 (SN12C) was 22.5 µM (inactive), the GI50 (A498) was 18.8 µM (inactive) and the GI50 (MDA-N) was 18.9 µM (inactive). For the same compound, the GI50 (ACHN) was 20.8 µM (inactive), the GI50 (MCF7) was 18.5 µM (inactive) and the GI50 (UO-31) was 18.9 µM (inactive). The GI50 (PC-3) was 12.3 µM (inactive), the GI50 (OVCAR-8) was 27.8 µM (inactive) and the GI50 (SNB-75) was 16.5 µM (inactive). For the same compound, the GI50 (HCC 2998) was 18 µM (inactive), the GI50 (HOP-92) was 30.7 µM (inactive) and the GI50 (MDA-MB-231) was 14.4 µM (inactive). The GI50 (EKVX) was 28.1 µM (inactive), the GI50 (MDA-MB-435) was 14.5 µM (inactive) and the GI50 (NCI-H522) was 20.7 µM (inactive). For the same compound, the GI50 (786-0) was 19.3 µM (inactive), the GI50 (HOP-62) was 38.9 µM (inactive) and the GI50 (SK-MEL-5) was 19.6 µM (inactive). The GI50 (NCI-H460) was 30.9 µM (inactive), the GI50 (UACC-62) was 21.1 µM (inactive) and the GI50 (COLO 205) was 23.1 µM (inactive). For the same compound, the GI50 (DU-145) was 19.1 µM (inactive), the GI50 (SF-295) was 44 µM (inactive) and the GI50 (A549) was 22 µM (inactive). The GI50 (SF-539) was 26.4 µM (inactive), the GI50 (UACC-257) was 19.7 µM (inactive) and the GI50 (T47D) was 15.9 µM (inactive). For the same compound, the GI50 (SW-620) was 22.1 µM (inactive), the GI50 (SR) was 18.9 µM (inactive) and the GI50 (HCT-15) was 19.1 µM.
